Patent US20150050663A1, “Optimal Gonadotropin Dosage” (Oslo Universitetssykehus HF, priority 2012, published 2015)

System: peripheral blood monocytes
Test: uptake of fluorochrome-conjugated gonadotropins by blood-derived leukocytes (FACS)
Assay type: cell-based, human
Details: FIG. 1B
Description: Blood-derived monocytes are enriched by density gradient centrifugation. […] Cells are labelled with fluorochrome-conjugated monocyte marker (e.g. anti-CD14-PerCP antibody, as described above) and analyzed with multi-colour flow cytometry (FACS).
Unspecific binding (background) is estimated as MFI for cells incubated on ice
Cells were analyzed with flow cytometry (FACS) with simultaneous detection of multiple cell lineage markers.

Substance: cytochalasin
- effect on gonadotropin binding to monocytes: inhibited
